“And” between values parts separate entries of the source, which are not always exact repeats. Equal values may be shown once. Inconclusive results and toxic doses are left out.

For the experiment, the system named is P388 leukemia ip, CD2F1 mice, survival T/C. Put plainly: NCI In Vivo Anticancer Drug Screen. Data for tumor model P388 Leukemia (intraperitoneal) in CD2F1 (CDF1) mice. The note with it: endpoint: median survival time, higher = longer survival. Summed up:
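Mice carrying the transplanted tumor received test compound or vehicle. Survival was recorded in each group, and the value is the treated-group measurement divided by that of the vehicle-treated control group.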

Where [1] appears, read: dose: 50.0 mg/kg/injection, schedule: Q01DX009 (ip), vehicle: saline.
The mark [2] stands for this setting: dose: 100.0 mg/kg/injection, schedule: Q01DX009 (ip), vehicle: saline.
The mark [3] stands for this setting: dose: 200.0 mg/kg/injection, schedule: Q01DX009 (ip), vehicle: saline.
[4] abbreviates: dose: 100.0 mg/kg/injection, schedule: Q04DX002 (ip), vehicle: saline with Tween-80.
Where [5] appears, read: dose: 200.0 mg/kg/injection, schedule: Q04DX002 (ip), vehicle: saline with Tween-80.
The mark [6] stands for this setting: dose: 100.0 mg/kg/injection, schedule: Q01DX001 (ip), vehicle: saline with Tween-80.
Setting [7] is: dose: 50.0 mg/kg/injection, schedule: Q01DX005 (ip), vehicle: Klucel (hydroxypropylcellulose) (HPC).
Setting [8] is: dose: 100.0 mg/kg/injection, schedule: Q01DX005 (ip), vehicle: Klucel (hydroxypropylcellulose) (HPC).
Where [9] appears, read: dose: 200.0 mg/kg/injection, schedule: Q01DX005 (ip), vehicle: Klucel (hydroxypropylcellulose) (HPC).
Where [10] appears, read: dose: 60.0 mg/kg/injection, schedule: Q01DX005 (ip), vehicle: saline with Tween-80.
Setting [11] is: dose: 120.0 mg/kg/injection, schedule: Q01DX005 (ip), vehicle: saline with Tween-80.
Setting [12] is: dose: 400.0 mg/kg/injection, schedule: Q04DX002 (ip), vehicle: saline with Tween-80.
Where [13] appears, read: dose: 200.0 mg/kg/injection, schedule: Q01DX001 (ip), vehicle: saline with Tween-80.
The mark [14] stands for this setting: dose: 400.0 mg/kg/injection, schedule: Q01DX001 (ip), vehicle: saline with Tween-80.
The mark [15] stands for this setting: dose: 50.0 mg/kg/injection, schedule: Q01DX009 (ip), vehicle: other.
The mark [16] stands for this setting: dose: 100.0 mg/kg/injection, schedule: Q01DX009 (ip), vehicle: other.
The mark [17] stands for this setting: dose: 100.0 mg/kg/injection, schedule: Q04DX003 (ip), vehicle: saline with Tween-80.

For the compound `Cc1cccc(=O)[n-]1.Cc1cccc(=O)[n-]1.Cc1cccc(=O)[n-]1.Cc1cccc(=O)[n-]1.Cc1cccc(=O)[n-]1.Cc1cccc(=O)[n-]1.Cc1cccc(=[OH+])[n-]1.Cc1cccc(=[OH+])[n-]1.[Rh+2].[Rh+2].[Rh+2].[Rh+2]`, the T/C is 104 % of control (dose: 100.0 mg/kg/injection, schedule: Q04DX002 (ip), vehicle: Klucel (hydroxypropylcellulose) (HPC)) and 113 % of control (dose: 200.0 mg/kg/injection, schedule: Q04DX002 (ip), vehicle: Klucel (hydroxypropylcellulose) (HPC)).

As to `OCC1C=Cc2ccccc21` (stereo not given), the T/C reads like this: under setting [1], 109 % of control; under setting [2], 107 % of control; under setting [3], 114 % of control.

Regarding `CN1/C(=C/C(=S)SCC(=O)c2ccccc2)C=Cc2ccccc21`, the T/C runs as follows: (dose: 50.0 mg/kg/injection, schedule: Q04DX002 (ip), vehicle: saline with Tween-80) 94 % of control; under setting [4], 90 % of control; under setting [5], 88 % of control.

In the case of `Cn1c2ccc([N+](=O)[O-])cc2c(=O)c2c(O)cc3c(c21)C=CC(C)(C)O3`, the T/C by setting is: (dose: 25.0 mg/kg/injection, schedule: Q01DX001 (ip), vehicle: saline with Tween-80) 97 % of control; (dose: 50.0 mg/kg/injection, schedule: Q01DX001 (ip), vehicle: saline with Tween-80) 97 % of control; under setting [6], 89 % of control and 95 % of control.

On to `O=C1C=C2CCCCCCCCCC(C1)C2` (stereo not given), for which the T/C is 99 % of control under setting [7], 99 % of control under setting [8] and 89 % of control under setting [9].

For `Nc1ncc2c(n1)CSCC2=O`, the T/C is 98 % of control under setting [10]; 100 % of control under setting [11]; 90 % of control (dose: 240.0 mg/kg/injection, schedule: Q01DX005 (ip), vehicle: saline with Tween-80).

For `CN(O)/C=C1\C(=O)C=Cc2ccccc21`, the T/C is, setting by setting: under setting [7], 90 % of control; under setting [8], 94 % of control; under setting [9], 90 % of control.

Turning to `BrCCCOc1ccccc1Br`, the T/C was 101 % of control under setting [7], 97 % of control under setting [8] and 105 % of control under setting [9].

In the case of `O=C1c2ccccc2C(=O)C1(c1ccccn1)[N+](=O)[O-]`, the T/C is 110 % of control under setting [10] and 113 % of control under setting [11].

Consider `Cc1ccc(N=Nc2c(O)n(-c3ccccc3C)c(=S)n(-c3ccc(Br)cc3)c2=O)cc1`, for which the T/C (dose: 50.0 mg/kg/injection, schedule: Q01DX009 (ip), vehicle: saline with Tween-80) was 100 % of control and the T/C (dose: 100.0 mg/kg/injection, schedule: Q01DX009 (ip), vehicle: saline with Tween-80) is 101 % of control.

In the case of `CC1=C(C)NC(C)=C(C)N1`, the T/C under setting [1] is 97 % of control, the T/C under setting [2] is 95 % of control and the T/C under setting [3] was 97 % of control.

Turning to `Cc1ccc(-c2csc3nc(C)c(CN4CCCCC4)c(=O)n23)cc1`, the T/C is 113 % of control (dose: 75.0 mg/kg/injection, schedule: Q04DX002 (ip), vehicle: Klucel (hydroxypropylcellulose) (HPC)); 103 % of control (dose: 150.0 mg/kg/injection, schedule: Q04DX002 (ip), vehicle: Klucel (hydroxypropylcellulose) (HPC)); 113 % of control (dose: 300.0 mg/kg/injection, schedule: Q04DX002 (ip), vehicle: Klucel (hydroxypropylcellulose) (HPC)).

With `CN1C(=O)C2C=CC1C1C(=O)N(c3ccc([N+](=O)[O-])cc3)C(=O)C21` (stereo not given), the T/C is 103 % of control under setting [4], 95 % of control under setting [5] and 95 % of control under setting [12].

In the case of `Nc1ccc(OCCNC(=O)c2ccc(S(=O)(=O)F)cc2)c(Cl)c1`, the T/C runs as follows: under setting [6], 90 % of control; under setting [13], 100 % of control; under setting [14], 104 % of control.

As for `CCOC(=O)C([NH-])C([NH-])C(=O)OCC.[Cl][Pt+2][Cl]` (stereo not given), the T/C (dose: 12.5 mg/kg/injection, schedule: Q04DX002 (ip), vehicle: saline with Tween-80) was 163 % of control and the T/C (dose: 25.0 mg/kg/injection, schedule: Q04DX002 (ip), vehicle: saline with Tween-80) was 164 % of control.

`Cc1ccc(S(=O)(=O)NC(CC(N)=O)C(=O)O)cc1` (stereo not given): the T/C was 101 % of control (dose: 25.0 mg/kg/injection, schedule: Q01DX009 (ip), vehicle: other); 100 % of control under setting [15]; 101 % of control under setting [16]; 100 % of control (dose: 200.0 mg/kg/injection, schedule: Q01DX009 (ip), vehicle: other); 98 % of control (dose: 400.0 mg/kg/injection, schedule: Q01DX009 (ip), vehicle: other).

Turning to `Nc1cccc2ccccc12`, under setting [17], the T/C is 94 % of control.

Take `COC(=O)C(CCC1CCCCN1)(c1ccccc1)c1ccccc1` (stereo not given): the T/C is 120 % of control (dose: 25.0 mg/kg/injection, schedule: Q04DX003 (ip), vehicle: saline with Tween-80); 100 % of control (dose: 66.0 mg/kg/injection, schedule: Q04DX003 (ip), vehicle: saline with Tween-80); 150 % of control and 158 % of control under setting [17].

As to `Nc1cccnc1C1OCCO1`, the T/C is 100 % of control under setting [15] and 103 % of control under setting [16].

With `COc1cc(C2C3=C(CC(C)(C)CC3=O)Oc3cc4c(cc32)OCO4)cc(OC)c1OC` (stereo not given), the T/C reads like this: under setting [10], 97 % of control; under setting [11], 98 % of control.

As for `CNC(=O)OCc1cocc1COC(=O)NC`, the T/C is, setting by setting: (dose: 12.5 mg/kg/injection, schedule: Q01DX009 (ip), vehicle: distilled water + Tween-80) 106 % of control; (dose: 25.0 mg/kg/injection, schedule: Q01DX009 (ip), vehicle: distilled water + Tween-80) 101 % of control; (dose: 50.0 mg/kg/injection, schedule: Q01DX009 (ip), vehicle: distilled water + Tween-80) 109 % of control; (dose: 100.0 mg/kg/injection, schedule: Q01DX009 (ip), vehicle: distilled water + Tween-80) 117 % of control.

Consider `CC(=O)Oc1c(C)c(OC(C)=O)c2c(c1C(C)=O)OC1=CC(O)=C(C(C)=O)C(=O)C12C` (stereo not given), for which the T/C was 98 % of control and 102 % of control (dose: 6.25 mg/kg/injection, schedule: Q01DX009 (ip), vehicle: gum acacia); 104 % of control and 105 % of control (dose: 12.5 mg/kg/injection, schedule: Q01DX009 (ip), vehicle: gum acacia); 100 % of control and 102 % of control (dose: 25.0 mg/kg/injection, schedule: Q01DX009 (ip), vehicle: gum acacia); 102 % of control and 110 % of control (dose: 50.0 mg/kg/injection, schedule: Q01DX009 (ip), vehicle: gum acacia); 113 % of control and 115 % of control (dose: 100.0 mg/kg/injection, schedule: Q01DX009 (ip), vehicle: gum acacia); 97 % of control under setting [4]. In addition, the T/C is, setting by setting: under setting [5], 102 % of control; under setting [12], 101 % of control.

As for `CC(C)OC(=O)C#N`, the T/C by setting is: (dose: 1.56 mg/kg/injection, schedule: Q01DX005 (ip), vehicle: saline with Tween-80) 100 % of control; (dose: 3.12 mg/kg/injection, schedule: Q01DX005 (ip), vehicle: saline with Tween-80) 101 % of control; (dose: 6.25 mg/kg/injection, schedule: Q01DX005 (ip), vehicle: saline with Tween-80) 100 % of control; (dose: 12.5 mg/kg/injection, schedule: Q01DX005 (ip), vehicle: saline with Tween-80) 98 % of control.

Consider `COc1cc(/C=C/C(=O)c2ccc(OCc3ccccc3)cc2OC(C)=O)c(OC)c(OC)c1OC`, for which the T/C runs as follows: (dose: 100.0 mg/kg/injection, schedule: Q01DX001 (ip), vehicle: Klucel (hydroxypropylcellulose) (HPC)) 96 % of control; (dose: 200.0 mg/kg/injection, schedule: Q01DX001 (ip), vehicle: Klucel (hydroxypropylcellulose) (HPC)) 94 % of control.

On to `NNC(=O)c1cc2c3ccccc3ncc2c2ccccc12`, for which the T/C by setting is: under setting [6], 86 % of control; under setting [13], 95 % of control; under setting [14], 113 % of control.
